In patent US12030904B2 (priority 2020, dated 2024):
Where two headings read alike, the source gives them in different places.

Tests used:
[1] = tested on: Recombinant Respiratory Syncytial virus strain A2 containing the firefly luciferase reporter (RSV-Fluc); test: microbe, parasite or virus in culture; assay type: cell-based; settings: human respiratory syncytial virus, NHBE
[2] = tested on: SARS-CoV-2; test: microbe, parasite or virus in culture; assay type: cell-based; settings: Severe acute respiratory syndrome coronavirus 2, read-out: SARS EC50
[3] = MT4 cytotoxicity (CC50); settings: human, MT4 cells
[4] = 72 h, read-out: RSV-Fluc EC50 (NHBE), NHBE cells, three days, Table 2

CCCCCCCCCCCCCCCCCCOC[C@H](COP(=O)(O)OC[C@H]1O[C@@](C#N)(c2ccc3c(N)ncnn23)[C@H](O)[C@@H]1O)OCc1c(F)cccc1F [Example 43, ((2R,3S,4R,5R)-5-(4-aminopyrrolo[2,1-f][1,2,4]triazin-7-yl)-5-cyano-3,4-dihydroxytetrahydrofuran-2-yl)methyl ((R)-2-((2,6-difluorobenzyl)oxy)-3-(octadecyloxy)propyl) hydrogen phosphate]
EC50 [1, 4]: 0.068 µM
EC50 ([1]; read-out: RSV EC50, Table 2a): 0.068 µM
EC50 [2]: 0.139 µM
CC50 ([3]; MT4 CC50, Table 2a): 1.47 µM

CCCCCCCCCCCCCCCCCCOCCCOP(=O)(O)OC[C@H]1O[C@@](C#N)(c2ccc3c(N)ncnn23)[C@H](O)[C@@H]1O [Example 59, ((2R,3S,4R,5R)-5-(4-Aminopyrrolo[2,1-f][1,2,4]triazin-7-yl)-5-cyano-3,4-dihydroxytetrahydrofuran-2-yl)methyl (3-(octadecyloxy)propyl) hydrogen phosphate]
EC50 [1, 4]: 0.17 µM
EC50 ([1]; read-out: RSV EC50, Table 2a): 0.171 µM
EC50 [2]: 10 µM
CC50 ([3]; MT4 CC50, Table 2a): 19.6 µM

CCCCCCCCCCCCCCCCOC[C@H](COP(=O)(O)OC[C@H]1O[C@@](C#N)(c2ccc3c(N)ncnn23)[C@H](O)[C@@H]1O)OCc1ccc(OC)cc1 [Example 97, ((2R,3S,4R,5R)-5-(4-aminopyrrolo[2,1-f][1,2,4]triazin-7-yl)-5-cyano-3,4-dihydroxytetrahydrofuran-2-yl)methyl ((R)-3-(hexadecyloxy)-2-((4-methoxybenzyl)oxy)propyl) hydrogen phosphate]
EC50 ([1]; read-out: RSV EC50, Table 4): 0.04 µM
EC50 [2]: 0.099 µM
CC50 ([3]; MT4 CC50, Table 4): 0.652 µM

CCCCCCCCCCCCCCCCCOC[C@H](COP(=O)(O)OC[C@H]1O[C@@](C#N)(c2ccc3c(N)ncnn23)[C@H](O)[C@@H]1O)OCc1ccc(C#N)c(F)c1 [Example 94, ((2R,3S,4R,5R)-5-(4-aminopyrrolo[2,1-f][1,2,4]triazin-7-yl)-5-cyano-3,4-dihydroxytetrahydrofuran-2-yl)methyl ((R)-2-((4-cyano-3-fluorobenzyl)oxy)-3-(heptadecyloxy)propyl) hydrogen phosphate]
EC50 ([1]; read-out: RSV EC50, Table 4): 0.038 µM
EC50 [2]: 0.038 µM
CC50 ([3]; MT4 CC50, Table 4): 0.273 µM

CCCCCCCC/C=C\CCCCCCCCOC[C@H](COP(=O)(O)OC[C@H]1O[C@@](C#N)(c2ccc3c(N)ncnn23)[C@H](O)[C@@H]1O)OCc1ccccc1 [Example 130, ((2R,3S,4R,5R)-5-(4-aminopyrrolo[2,1-f][1,2,4]triazin-7-yl)-5-cyano-3,4-dihydroxytetrahydrofuran-2-yl)methyl ((R)-2-(benzyloxy)-3-(((Z)-octadec-9-en-1-yl)oxy)propyl) hydrogen phosphate]
EC50 ([1]; read-out: RSV EC50, Table 4): 0.039 µM
EC50 [2]: 0.11 µM
CC50 ([3]; MT4 CC50, Table 4): 3.56 µM

CCCCCCCCCCCCCCCCCCOC[C@H](COP(=O)(O)OC[C@H]1O[C@@](C#N)(c2ccc3c(N)ncnn23)[C@H](O)[C@@H]1O)Oc1cc(F)cc(C#N)c1 [Example 31, ((2R,3S,4R,5R)-5-(4-aminopyrrolo[2,1-f][1,2,4]triazin-7-yl)-5-cyano-3,4-dihydroxytetrahydrofuran-2-yl)methyl ((R)-2-(3-cyano-5-fluorophenoxy)-3-(octadecyloxy)propyl) hydrogen phosphate]
EC50 ([1]; read-out: RSV EC50, Table 2a): 0.021 µM
EC50 [2]: 0.086 µM
CC50 ([3]; MT4 CC50, Table 2a): 0.195 µM

CCCCCCCCCCCCCCCCCCOC[C@H](COP(=O)(O)OC[C@H]1O[C@@](C#N)(c2ccc3c(N)ncnn23)[C@H](O)[C@@H]1O)OCc1ccc(OC)c(Cl)c1 [Example 49, ((2R,3S,4R,5R)-5-(4-aminopyrrolo[2,1-f][1,2,4]triazin-7-yl)-5-cyano-3,4-dihydroxytetrahydrofuran-2-yl)methyl ((R)-2-((3-chloro-4-methoxybenzyl)oxy)-3-(octadecyloxy)propyl) hydrogen phosphate]
EC50 [1, 4]: 0.23 µM
EC50 ([1]; read-out: RSV EC50, Table 2a): 0.232 µM
EC50 [2]: 3.35 µM
CC50 ([3]; MT4 CC50, Table 2a): 0.951 µM
